# In US20260069606A1, “Oxidative Stress and Diabetes Treatment with Cobinamide” (The Regents of the University of California, priority 2022, published 2026):
# What was measured:
# [1] = Reaction with superoxide, spin trap DMPO / EPR; type: biochemical
# Protocol: The reaction of cobinamide with O2·^− was studied in two different systems, generating O2·^− using a hypoxanthine-xanthine oxidase system.
# The second system contained 1 mM hypoxanthine, 0.04 U xanthine oxidase, and 0.26 M DMPO in phosphate-buffered saline, pH 7.4 (PBS). Samples were transferred to a capillary tube, and introduced into the EPR cavity of a Magnettech MiniScope MS5000. DMPO-OH signals arising from the DMPO-OOH spin adduct were measured at 37° C. for 5 min. The area under the DMPO-OOH peak was calculated using Origin 2022b software. To avoid variability across runs, signal amplitudes were normalized to the intensity of simultaneously recorded Mn reference signals originating from ZnS:Mn^2+ fixed within the EPR cavity.
# In both systems, the experiments were conducted in the absence and presence of the indicated concentrations of Cbi(III) or Chi(II) 65.
# The reaction of Chi(III) with O2·^− was also measured using the spin-trap DMPO, which yields a distinctive electron paramagnetic resonance (EPR) spectrum on reacting with O2·^−. Sub-micromolar concentrations of cobinamide reduced the EPR signal in a dose-dependent fashion, yielding an apparent rate constant of 7.5×10^7 M^−1 s^−1 for the reaction of Chi(III) with O2·^− (FIG. 1B).
# H9c2 cells = assay: Mitochondrial membrane potential, JC-1 red to green fluorescence; type: cell-based, rat
# Protocol: (§1) FIGS. 3A-3H. […] FIGS. 3A-3B. […] FIG. 3A. […] FIG. 3B. […] FIGS. 3C-3D. […] FIG. 3D. […] FIGS. 3E-3F. […] FIG. 3E. Representative blots are shown. […] FIG. 3F. […] FIG. 3G. […] FIG. 3H.
# The cells were then washed once with PBS, placed back in the DMEM experimental medium, and incubated with the indicated drugs for 30 min. At the end of the incubation period, nuclei of both the MitoSOX Red- and JC-1-treated cells were stained with […] 4′,6-diamidino-2-phenyl-indole (DAPI) for 3 min, washed once with PBS, and returned to the DMEM experimental medium. The cover slips were removed from the wells, mounted in the DMEM experimental medium, and red (MitoSOX Red and JC-1 aggregates), green (JC-1 monomers), and blue (DAPI) fluorescence intensity was assessed using a Keyence BZ-X700 fluorescence microscope at the following paired excitation/emission wavelengths, respectively: 560/630, 490/525, and 360/460 nm.
# Increased mitochondrial O2·^− by rotenone would be expected to reduce the mitochondrial membrane potential (ΔΨm), due in part to activation of uncoupling proteins^39. […] Rotenone caused an almost complete loss of red fluorescence and a striking increase in green fluorescence in the cells, indicating a marked decrease in ΔΨm (FIGS. 3C-3D).
# [2] = tested on: Jun N-terminal kinase (JNK) phosphorylation in H9c2 cells; assay: H2O2-induced JNK phosphorylation, immunoblotting; type: cell-based, rat
# Source text: as §1
# [3] = physiological conditions; 50 mM potassium phosphate pH 7.4, three-fold molar excess of reductant
# Protocol: H9c2 cells were incubated for 30 min with vehicle, 2.5 μM cobinamide, or 5 μM rotenone, the latter in the absence or presence of 2.5 μM cobinamide, imisopasem, MnTBAP, or cobalamin; 5 μM MitoSOX was added during the last 10 min. The cells were incubated with 1 mg/ml DAPI for 3 min to counterstain nuclei, and then visualized under a fluorescence microscope. […] Equal-sized representative areas for each condition are shown for MitoSOX staining (red fluorescence) and the same area showing merged MitoSOX and DAPI staining. […] The amount of red fluorescence was quantified by Image J analysis. Data are the mean±SD of three independent experiments; in each experiment two separate equal-sized areas were analyzed containing ˜75 cells per area. […] H9c2 cells were incubated for 10 min with 10 μM JC-1, washed once with PBS, and then incubated for 30 min with vehicle, 2.5 μM cobinamide, or 5 μM rotenone in the absence or presence of 2.5 μM of the indicated drugs as described in Panels A, B. FIG. 3C. Cells were visualized under a fluorescence microscope and equal-sized representative areas of each condition are shown, with red and green fluorescence shown for the same area. […] The amount of red and green fluorescence was quantified by Image J analysis and the red to green ratio was calculated. The slides were analyzed by an operator who was blinded to the specific conditions. Data are the mean±SD of three independent experiments; in each experiment two separate equal-sized areas were analyzed containing ˜75 cells per area. […] Blots from four independent experiments were analyzed by densitometric scanning (Li-Cor Odyssey software) in a range where band intensity was linear. The ratio of the pJNK band to GAPDH was calculated, and the results normalized to control untreated cells. […] The UV-visible spectrum of Chi(III) in 50 mM potassium phosphate buffer, pH 7.4 was recorded before (black line) and immediately after adding a three-fold molar excess of ascorbate (blue line), cysteine (teal line), or reduced glutathione (GSH, pink line). […]
# [4] = second order; literature values; cited from earlier work
# [5] = tested on: mouse model of human familial aortic aneurysm; settings: 1 mM cobinamide in drinking water; cited from earlier work
smiles,measurement,setting,value
"C/C1=C2/[N-][C@H]([C@H](CC(N)=O)[C@@]2(C)CCC(=O)NC[C@@H](C)O)[C@]2(C)N=C(/C(C)=C3N=C(/C=C4N=C1[C@@H](CCC(N)=O)C\4(C)C)[C@@H](CCC(N)=O)[C@]\3(C)CC(N)=O)[C@@H](CCC(N)=O)[C@]2(C)CC(N)=O.[Co+3] [cobinamide, aquohydroxo-cobinamide]","Apparent rate constant, reaction with O2·^−",[1],7.5e+07 M⁻¹ s⁻¹
same,JC-1 red to green fluorescence ratio (ΔΨm) in rotenone-treated cells,"H9c2 cells; H9c2, 5 μM rotenone 30 min, drugs at 2.5 μM",restored the ratio of red to green fluorescence
same,"JC-1 red to green fluorescence ratio, drug alone","H9c2 cells; H9c2, vehicle-treated cells without rotenone, 2.5 μM",no change
same,JNK phosphorylation in H2O2-treated cells,"[2]; H9c2, 100 μM H2O2 30 min, drugs at 100 μM",reduced JNK phosphorylation to a level that was indistinguishable from vehicle-treated cells
same,JNK phosphorylation or total cellular JNK in the absence of H2O2,"[2]; H9c2, drug alone","neither Cbi(III), Cbi(II) nor the other three drugs affected JNK phosphorylation"
same,"Reduction by ascorbate, cysteine and reduced glutathione (GSH)",[3],readily reduced to Cbi(II)
same,"Rate constant, reaction with nitric oxide (·NO), published",[4],2.4 × 10^8 (51) M^−1 s^−1
same,"Aortic oxidative stress, pathological changes and aneurysm formation",[5],"blocked the increase in oxidative stress and pathological changes, and prevented aneurysm formation"
same,Clinical or laboratory evidence of toxicity,[5],no clinical or laboratory evidence of toxicity
